According to patent US20160229835A1, “NOVEL PYRIDYLOXYACETYL TETRAHYDROISOQUINOLINE COMPOUNDS USEFUL AS NAMPT INHIBITORS” (ELI LILLY AND COMPANY, priority 2013, published 2016):
Where two headings read alike, the source gives them in different places.

Key:
CHP-212 = experiment: Cell Proliferation Assay ±NA, CHP-212; assay type: cell-based; conditions: Homo sapiens, CHP-212, autonomic ganglia, treatment time 72 hr
Description: (§1) The purpose of this assay is to measure the ability of a compound to inhibit proliferation of endometrium, kidney, adrenal gland, and autonomic ganglia cancer cell lines dependent on the NAMPT-mediated NAD^+ formation in the presence or absence of NA (10 μM) in vitro. One day before the planned initiation of compound treatment portion of the assay, one vial of assay ready frozen cells is thawed, and the cells are grown overnight in the media as shown in Table 3 under 5% CO2 at 37° C. Then, the cell layer is briefly rinsed with 0.25% (w/v) Trypsin-0.038% (w/v) EDTA solution followed with the addition of 3.0 ml of Trypsin-EDTA solution. Once the cell layer is dispersed, 8.0 ml of complete growth medium (Table 3) is added and cells are aspirated by gently pipetting. The cell suspension is transferred to a centrifuge tube and centrifuged at 800-1000 rpm for 3-5 minutes. The supernatant is discarded using a vacuum pump. The cell pellet is suspended in a complete medium by gently pipetting. The cell numbers are counted and adjusted to the appropriate density (Table 3). […] The bottom of each plate is pasted with a white back seal and luminescence is recorded using a Flexstation 3 with the following settings: Luminescence and integration time of 500 ms.

TGW = experiment: Cell Proliferation Assay ±NA, TGW; assay type: cell-based; conditions: autonomic ganglia, treatment time 48 hr
Description: as §1

AN3-CA = experiment: Cell Proliferation Assay ±NA, AN3-CA; assay type: cell-based; conditions: Homo sapiens, endometrium, treatment time 72 hr
Description: as §1

SN12C = experiment: Cell Proliferation Assay ±NA, SN12C; assay type: cell-based; conditions: Homo sapiens, kidney, treatment time 72 hr
Description: as §1

786-0 = experiment: Cell Proliferation Assay ±NA, 786-0; assay type: cell-based; conditions: Homo sapiens, 786-0, kidney, treatment time 48 hr
Description: as §1

[1] = system: NAMPT-mediated NAD+ formation in A2780 tumors; experiment: IVTI Assay (NAD+ formation in A2780 tumors); assay type: in vivo; conditions: A2780 xenograft, female nude mice, oral gavage, after 2 doses (7 hours after second dose); ± SE
Description: The purpose of this assay is to measure the ability of a test compound to inhibit the NAMPT-mediated NAD^+ formation in tumors in an animal model. A2780 cells (ATCC) are grown as described above for the NAD^+ assay (Assay for NAD^+/NMN Levels in A2780 Cells). The cells (5×10^6/animal) are mixed with MATRIGEL® (1:1) and implanted subcutaneously into the rear flank of the mice (female nude mice, Harlan). The implanted tumor cells grow as solid tumors. The tumor volume and body weight are measured twice a week with a caliper. After tumor volume reaches approximately 300-500 mm^3, animals are randomized and grouped into positive control (described herein; 5 animals/group) and compound treatment groups (5 animals/group). The compound (formulated in 20% of CAPTISOL® and 25 mM of phosphate buffer, pH 2) and positive control (20% of CAPTISOL® and 25 mM of phosphate buffer, pH 2) are administered by oral gavage. Compound doses are in the range of 0.10 to 25 mg/kg. […] The resulting preparations (0.5 mL each) are filtered (with a 10K cutoff filter) to remove hemoglobin because red color interferes with the absorbance. […] NAD^+ quantitation is carried out using a NAD^+/NADH cycling assay kit (BioVision, cat#337-100-1). […] The percent inhibition of compound treated groups is calculated relative to the minimum inhibition groups. […]

[2] = NA 0.0 μM, read-out: IC50 (μM) NA (0.0 μM)
[3] = NA 10 μM, read-out: IC50 (μM) NA (10 μM)

SMILES: CC(C)(O)CS(=O)(=O)Nc1ccc2c(c1)CCN(C(=O)COc1cccnc1)C2 [Example 1, 2-Hydroxy-2-methyl-N-[2-[2-(3-pyridyloxy)acetyl]-3,4-dihydro-1H-isoquinolin-6-yl]propane-1-sulfonamide]
- IC50 (CHP-212; [2]): 0.07 µM
- IC50 (CHP-212; [3]): 0.07 µM
- IC50 (TGW; [2]): 0.01 µM
- IC50 (TGW; [3]): 0.01 µM
- IC50 (AN3-CA; [2]): 0.02 µM
- IC50 (AN3-CA; [3]): 0.02 µM
- IC50 (SN12C; [2]): 0.06 µM
- IC50 (SN12C; [3]): 0.05 µM
- IC50 (786-0; [2]): 0.07 µM
- IC50 (786-0; [3]): 0.04 µM
- TED50 (dose for 50% inhibition of NAD+ formation in tumor) [1]: 2.56 ± 0.37 mg/kg
